The record followed here is US11773096B2, “Small-molecule PI5P4K alpha/beta inhibitors and methods of treatment using same” (YALE UNIVERSITY, priority 2018, dated 2023).

As a reminder, the Ki is the dissociation constant of the complex between target and ligand, obtained from inhibition or displacement. Broadly, the Kd is the constant that tells how readily two partners part at equilibrium. A high value points to lower affinity.

The target in assay [1] is T1, PI5P4Kα (Homo sapiens, UniProt P48426).
T1 sequence (P48426 1-406): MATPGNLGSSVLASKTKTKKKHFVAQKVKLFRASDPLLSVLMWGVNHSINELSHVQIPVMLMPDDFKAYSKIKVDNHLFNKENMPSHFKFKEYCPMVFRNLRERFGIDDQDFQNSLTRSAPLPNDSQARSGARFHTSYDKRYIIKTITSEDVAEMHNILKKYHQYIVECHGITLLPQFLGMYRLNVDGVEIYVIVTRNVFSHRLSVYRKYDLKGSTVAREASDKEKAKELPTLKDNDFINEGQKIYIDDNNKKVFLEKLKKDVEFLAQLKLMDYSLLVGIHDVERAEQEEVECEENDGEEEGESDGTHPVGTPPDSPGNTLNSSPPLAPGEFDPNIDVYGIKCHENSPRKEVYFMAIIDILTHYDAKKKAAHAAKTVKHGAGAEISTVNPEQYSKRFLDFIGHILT
Nature of the assay: PI5P4Kα in vitro kinase assay based on ADP detection (ADP-Glo), kinetic studies. The assay is classed as biochemical. The arrangement: made in house. In general terms: ADP-Glo first removes unused ATP, then detects ADP through luciferase.
Protocol: Lipid vesicles [2:1 mixture of DPPS and PI(5)P] were prepared by sonication and extrusion in a buffer containing 0.1% CHAPS, 20 mM HEPES pH 7.3, 200 mM NaCl, 20 mM MgCl2, aliquoted, and stored at −80° C. Immediately before assay, thawed lipid suspension was sonicated and extruded again, and mixed with PI5P4Kα freshly purified in the same buffer. […] 20 nl of library compound (10 mM DMSO solution) was transferred to the well by an Aquarius system (Tecan). The plates were shaken for 30 s. 1 μl ATP solution was then added to initiate the reaction (final concentrations: PI(5)P 100 μM; lipid kinase 2 μg/ml; ATP 40 μM; library compound 20 μM). After incubating at RT in the dark for 1 h, 5 μl ADP-Glom reagent (Promega) was added to stop the reaction. After 40 min further incubation, 10 μl Kinase Detection reagent (Promega) was added. After 30 min, the luminescence was measured with an EnVision Multimode Plate Reader.
In vitro kinase assay based on ADP (product) detection was performed similarly in a white solid-bottom 96-well plate (Corning 3600). Within each well, 10 μl final reaction mixture contains 100 μM PI(5)P, 2 μg/ml PI5P4Kα, 10 μM ATP (in FIG. 1B, ATP concentration varied from 10 μM to 100 μM), 10 mM MgCl2, 0.1% CHAPS and 20 mM HEPES pH 7.3. After reaction, 10 μl ADP-Glo™ reagent and 20 μl Kinase Detection reagent were used for luminescence reading. […]

The next assay relates to AMPK. Nature of the assay: Western blot of ACC phosphorylation by AMPK in myotubes (FIG. 3F). The assay is classed as cell-based. The procedure: (§1) After wash with cold DPBS buffer, cells were lysed in RIPA buffer that contained 50 mM Tris-HCl pH 8.0, 150 mM NaCl, 1 mM EDTA, 1 mM EGTA, 1% NP-40, 0.5% sodium deoxycholate, 0.1% SDS, and protease and phosphatase inhibitor cocktails (Roche). Total protein concentrations were measured using a BCA assay (Thermo scientific). Cell lysate (about 80 μg protein) was resolved by SDS-PAGE and blotted onto PVDF membranes. The membranes were probed overnight at 4° C. with appropriate primary antibodies (Cell Signaling Technology) and incubated with secondary fluorescent antibodies (LI-COR Biosciences) for 1 hr at room temperature before imaging by an Odyssey CLx system.

For assay [2], the target named is T1, PI5P4Kα. The experiment in a line: Competitive fluorescent binding assay with TNP-ATP. The arrangement: made in house. The settings on record: displacement of 10 μM TNP-ATP from 6.8 μM PI5P4Kα.
For a further assay, the system named is L6 myotubes. The experiment in a line: 2-deoxyglucose uptake. The settings on record: overnight treatment with 20 μM 7a or 1 mM metformin. The assay is classed as cell-based, rat. How it is done: To measure 2-deoxyglucose (2-DG) uptake, L6 myotubes were treated with compound or DMSO control overnight in the absence of serum in α-MEM. Following treatment, cells were washed twice with KRH buffer (50 mM HEPES pH 7.4, 137 mM NaCl, 4.7 mM KCl, 1.85 mM CaCl2, 1.3 mM MgSO4) containing 0.1% BSA. Residual wash buffer was removed by aspiration. Cells were then incubated for 10 min at 37° C. in a KRH buffer containing 0.1% BSA, 5 mM unlabeled 2-DG and 2 μCi/ml [1,2-^3H(N)]-2-deoxy-D-glucose (PerkinElmer). The uptake was terminated by washing four times with ice-cold KRH buffer containing 0.1% BSA. Nonspecific 2-DG uptake into cells was determined in the presence of 10 μM cytochalasin B, which inhibits glucose transporters, and subtracted. The cells were lysed with 0.05 M NaOH for 2 hrs at 37° C. 10 μl cell lysate was used to quantify protein concentration by BCA assay. The remaining sample was transferred to a scintillation vial containing 3 ml Opti-Fluor liquid scintillation cocktail (PerkinElmer), and radioactivity was determined using a Beckman Coulter LS 6500 scintillation system and normalized against protein concentration.

The test system of a further assay is myotubes. Nature of the assay: Glucose consumption and lactate production in myotube culture media. The assay is classed as cell-based. The procedure:
To measure glucose consumption and lactate production, a total of 1×10^5 cells were seeded into each well of a 12-well plate and cultured in the presence of compound for 48 hrs. The culture media were collected and deproteinized by centrifugation using an Amicon Ultra centrifugal filter (3 kDa cut-off), while cells were lysed and used for protein concentration determination by BCA assay. The media were assayed immediately for glucose and lactate levels using colorimetric assay kits from BioVision following the manufacturer's protocols. The values were normalized against protein concentration. All measurements were made in triplicate.

Assay [3] concerns the target T1, PI5P4Kα. The experiment in a line: PI5P4Kα kinase assay, 32P-labelled PI(4,5)P2 product resolved by TLC.
Protocol: (§2) Within each well, 10 μl final reaction mixture contains 100 μM PI(5)P, 2 μg/ml PI5P4Kα, 10 μM ATP (in FIG. 1B, ATP concentration varied from 10 μM to 100 μM), 10 mM MgCl2, 0.1% CHAPS and 20 mM HEPES pH 7.3. […] Kinase assay based on PI(4,5)P2 (product) detection was carried out in a 50 μl assay mixture containing 40 μM PI(5)P, 0.4 μg/ml PI5P4Kα, 20 μM ATP (unless otherwise stated), 10 mM MgCl2, 20 mM HEPES pH 7.3, and 10 mCi [γ-^32P]-ATP for 1 h at RT. […] The reaction was terminated by 5 μl 12N HCl. After termination, 175 μl PBS buffer and 380 μl methanol/chloroform mix (1:1, v/v) containing 10 μg/ml bovine brain extract (type I; Folch Fraction I; Sigma Aldrich) were added. The lower organic phase, containing the extracted lipids, was collected and dried under vacuum. The dried lipids were re-suspended in 25 μl methanol/chloroform mix (2:1, v/v), and separated by thin-layer chromatography (TLC). For TLC, heat activated 1% potassium oxalate-coated silica gel 60 plates were used (20 cm×20 cm, Merck), and the running solvent contained water, acetic acid, methanol, acetone, and chloroform (3:32:24:30:64 mix by volume). Radiolabeled lipid product was quantified with a phosphor imager (Bio-Rad Molecular Imager FX). […] The inhibitor was usually incubated with the enzyme at RT for 20 min before the reaction was initiated.
The target of a further assay is T2, PI5P4Kβ (Homo sapiens, UniProt P78356).
T2 sequence (P78356 1-416): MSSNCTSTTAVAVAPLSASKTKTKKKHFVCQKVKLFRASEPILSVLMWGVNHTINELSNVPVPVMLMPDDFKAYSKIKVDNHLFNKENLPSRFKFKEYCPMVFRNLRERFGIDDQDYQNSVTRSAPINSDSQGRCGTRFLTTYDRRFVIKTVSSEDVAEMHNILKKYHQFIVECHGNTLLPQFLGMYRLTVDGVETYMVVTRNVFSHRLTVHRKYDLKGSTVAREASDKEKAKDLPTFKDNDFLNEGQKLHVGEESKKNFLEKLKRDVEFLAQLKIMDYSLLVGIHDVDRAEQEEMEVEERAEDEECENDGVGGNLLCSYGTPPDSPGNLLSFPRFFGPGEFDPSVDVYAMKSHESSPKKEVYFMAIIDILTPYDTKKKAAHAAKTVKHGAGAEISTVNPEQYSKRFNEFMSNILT
The experiment in a line: PI5P4Kβ kinase assay, 32P-labelled PI(4,5)P2 product resolved by TLC.

In a further assay the test system is C2Cl2 myotubes. Nature of the assay: Immunoblot analysis of signaling in C2Cl2 myotubes. Type of assay: cell-based, mouse. The settings on record: FIG. 3E. The procedure: BT-474 and MCF7 breast cancer cells, C2Cl2 mouse myoblast cells, and HEK 293T cells were maintained in high-glucose DMEM medium containing 10% FBS. L6 rat myoblast cells were maintained in α-MEM medium containing 10% FBS. For differentiation into myotubes, C2Cl2 cells were kept in DMEM medium containing 2% horse serum for 5 days, and L6 cells were kept in α-MEM medium containing 2% FBS for 7 days. Amino-acid-free DMEM medium was prepared using powder from USBio, and MEM amino acids solution was from Gibco. Media were all supplemented with 100 U/ml penicillin/streptomycin. Cell lines were purchased from ATCC.
as §1
In general terms: A western blot detects proteins with antibodies after separation by electrophoresis.

“Also recorded” adds a separate entry of the source.

Protocol for PI5P4Kβ: as §2

For `CC[C@@H]1C(=O)N(C)c2cnc(Nc3ccc(C(=O)N[C@H]4CC[C@H](N5CCN(CC6CC6)CC5)CC4)cc3OC)nc2N1C(C)C` [volasertib], the “Kis for PI5P4Kα compared with BI-D1870” value at PI5P4Kα [1] (ATP 10 μM) was “slightly higher”.

Turning to `CC[C@@H]1C(=O)N(C)c2cnc(Nc3ccc(C(=O)NC4CCN(C)CC4)cc3OC)nc2N1C1CCCC1` [BI-2536], the “ACC phosphorylation / AMPK activation” value in the assay with AMPK is “did not increase; also recorded: did not induce”.

Take `CC(C)CCN1c2nc(Nc3cc(F)c(O)c(F)c3)ncc2N(C)C(=O)C1C` (stereo not shown) [BI-D1870]: the “ACC phosphorylation / AMPK activation” value in the assay with AMPK is “did not increase; also recorded: did not induce”. Further, the Ki at PI5P4Kα [1] (competitive with ATP) is about 1000 nM. Further, the Kd at PI5P4Kα [2] was about 1300 nM.

With `CN(C)C(=N)N=C(N)N` [metformin, reference compound], the “rate of glucose uptake (labeled 2-deoxyglucose)” value in the assay on L6 myotubes is on record as “doubled”. The “molar fraction of consumed glucose used for lactate fermentation” value in the assay on myotubes (48 hours) worked out at 41%. Further, in the assay on myotubes (48 hours after treatment), the “lactate accumulated in the media” value is 8.6 mM and the “reduction of glucose concentration in the media” value is 10.6 mM.

As for `CN1C(=O)[C@@H](CC2CCCC2)N(C2CCCC2)c2nc(Nc3csc(C(=O)O)c3)ncc21` [7h, (R)-4-((8-cyclopentyl-7-(cyclopentylmethyl)-5-methyl-6-oxo-5,6,7,8-tetrahydropteridin-2-yl)amino)thiophene-2-carboxylic acid], the Ki was 110 to 220 nM on PI5P4Kα [3] and 80 to 160 nM on PI5P4Kβ.

Regarding `CN1C(=O)[C@@H](CC2CCCC2)N(C2CCCC2)c2nc(Nc3ncc(C(=O)O)s3)ncc21` [7g, (R)-2-((8-cyclopentyl-7-(cyclopentylmethyl)-5-methyl-6-oxo-5,6,7,8-tetrahydropteridin-2-yl)amino)thiazole-5-carboxylic acid], the Ki at PI5P4Kα [3] was in the range of 30 to 90 nM; at PI5P4Kβ, 100 to 280 nM.

As to `C[C@@H]1COCCN1c1cc(=O)n2c(n1)N(Cc1cncc(Cl)c1)[C@H](C(F)(F)F)CC2` [SAR405, reference compound], in the assay with C2Cl2 myotubes, the “mTORC1 activation by amino acids” value is “prevented”.

In the case of `CN1C(=O)[C@@H](Cc2ccccn2)N(C2CCCC2)c2nc(Nc3ncc(C(=O)O)s3)ncc21` [7j, (R)-2-((8-cyclopentyl-5-methyl-6-oxo-7-(pyridin-2-ylmethyl)-5,6,7,8-tetrahydropteridin-2-yl)amino)thiazole-5-carboxylic acid], the results for the Ki at PI5P4Kα [3] and on PI5P4Kβ were 50 to 100 nM and 400 to 800 nM, respectively.

Compound `CN1C(=O)[C@@H](Cc2ccccn2)N(C2CCCC2)c2nc(Nc3ccc4[nH]nnc4c3)ncc21` [7k, (R)-2-((1H-benzo[d][1,2,3]triazol-5-yl)amino)-8-cyclopentyl-5-methyl-7-(pyridin-2-ylmethyl)-7,8-dihydropteridin-6(5H)-one] returned a Ki at PI5P4Kβ of 100 to 200 nM.

Take `CN1C(=O)[C@@H](CC2CCCC2)N(C2CCCC2)c2nc(Nc3ccc4[nH]nnc4c3)ncc21` [7f, (R)-2-((1H-benzo[d][1,2,3]triazol-5-yl)amino)-8-cyclopentyl-7-(cyclopentylmethyl)-5-methyl-7,8-dihydropteridin-6(5H)-one]: the Ki was 200 to 700 nM at PI5P4Kα [3] and 80 to 230 nM at PI5P4Kβ.

For `CS(=O)(=O)N1CCN(Cc2cc3nc(-c4cccc5[nH]ncc45)nc(N4CCOCC4)c3s2)CC1` [GDC-0941, reference compound], the “insulin-induced Akt phosphorylation at Ser-473” value with C2Cl2 myotubes is given as “eliminated”.

For `CN1C(=O)[C@@H](CC2CCCC2)N(C2CCCC2)c2nc(Nc3cc(F)c(C(=O)O)c(F)c3)ncc21` [7i, (R)-4-((8-cyclopentyl-7-(cyclopentylmethyl)-5-methyl-6-oxo-5,6,7,8-tetrahydropteridin-2-yl)amino)-2,6-difluorobenzoic acid], the Ki was in the range of 55 to 110 nM at PI5P4Kα [3] and 75 to 150 nM on PI5P4Kβ.

On to `CN1C(=O)[C@@H](Cc2ccccn2)N(C2CCCC2)c2nc(Nc3cc(Cl)c(O)c(Cl)c3)ncc21` [7e, (R)-8-cyclopentyl-2-((3,5-dichloro-4-hydroxyphenyl)amino)-7-(pyridine-2-ylmethyl)-5-methyl-7,8-dihydropteridin-6(5H)-one], for which the Ki on PI5P4Kα [3] and on PI5P4Kβ was 20 to 60 nM each time.

For the compound `CN1C(=O)[C@@H](CC2CCCCC2)N(C2CCCC2)c2nc(Nc3cc(Cl)c(O)c(Cl)c3)ncc21` [7b, (R)-7-(cyclohexylmethyl)-8-cyclopentyl-2-((3,5-dichloro-4-hydroxyphenyl)amino)-5-methyl-7,8-dihydropteridin-6(5H)-one], in the assay with AMPK, the “ACC phosphorylation / AMPK activation” value was “activated; also recorded: enhanced”. Further, the “potency/affinity for PI5P4Kα in vitro” value at PI5P4Kα [3] was “weaken the affinity”. Also, on PI5P4Kβ, the “potency/affinity for PI5P4Kβ in vitro” value is reported as “no effect”; the “selectivity between PI5P4Kα and PI5P4Kβ” value was “more specific for PI5P4Kβ; also recorded: more potent against PI5P4Kβ than PI5P4Kα”.
